Several values for one entry are separate records, joined by “and”; a condition that tells them apart may be missing. Equal values may be shown once.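 Briefly, cells in 96-well plates were exposed to five compound concentrations for 48 h, and endpoints were estimated by linear interpolation. GI50 marks 50% less growth. TGI: concentration producing complete growth inhibition.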 *1 amine or outer side, *2 acyl side, *3 side chain or, on linkers, in order; H or OH if unused. Where a SMILES comes first, the peptide text is derived from it. Bridges are numbered along the chain shown (N, C = ends). Roman numbers before positions name the chains, in order. X23 = CCCCCCCCCCCCCCC(=O)NC(CCCCN[*:2])C(=O)CN1CCCC1C(=O)[*:1]
Legend:
Assay in all cases: NCI-60 cell line screen, 48 h
HOP-62 NSCLC = system: HOP-62 NSCLC
HT29 colon = system: HT29 colon
MCF7 breast = system: MCF7 breast
MDA-MB-231 breast = system: MDA-MB-231 breast
NCI-H226 lung = system: NCI-H226 lung
RXF 393 renal = system: RXF 393 renal
SK-MEL-2 melanoma = system: SK-MEL-2 melanoma
TK-10 renal = system: TK-10 renal
U251 CNS = system: U251 CNS
MALME-3M melanoma = system: MALME-3M melanoma

| SMILES | GI50 (HOP-62 NSCLC) | TGI (HOP-62 NSCLC) [µM] | GI50 (HT29 colon) [µM] | TGI (HT29 colon) [µM] | GI50 (MCF7 breast) [µM] | TGI (MCF7 breast) [µM] | GI50 (MDA-MB-231 breast) [µM] | TGI (MDA-MB-231 breast) [µM] | GI50 (NCI-H226 lung) [µM] | TGI (NCI-H226 lung) [µM] | GI50 (RXF 393 renal) | TGI (RXF 393 renal) [µM] | GI50 (SK-MEL-2 melanoma) [µM] | TGI (SK-MEL-2 melanoma) | GI50 (TK-10 renal) [µM] | TGI (TK-10 renal) [µM] | TGI (U251 CNS) [µM] | TGI (MALME-3M melanoma) [µM] | GI50 (U251 CNS) [µM] |
| --- | --- | --- | --- | --- | --- | --- | --- | --- | --- | --- | --- | --- | --- | --- | --- | --- | --- | --- | --- |
| CCCCCCCCCCCCCCC(=O)NC(CCCCNC(=O)C1CCCN1C(=O)C(CCCCN)NC(=O)C(CCCCN)NC(=O)C(CCCCN)NC(=O)C(CCCNC(=N)N)NC(=O)C(CCCCN)NC(=O)C(N)C(C)C)C(=O)CN1CCCC1C(=O)NCC(=O)NC(Cc1ccccc1)C(=O)N1CCCC1C(=O)NC(CO)C(=O)NC(Cc1ccc(O)cc1)C(=O)NC(CCCCN)C(=O)NC(CC(C)C)C(=O)NC(CCCNC(=N)N)C(=O)N1CCCC1C(=O)NCC(N)=O (centres undefined) (I: GFPSYKLRPG-NH2 / II: H-VKRKKKP; linker I:N-II:C via X23; configuration not given here) | 27.8 µM | 69.5 | 24.7 | 77.8 | 15.4 | 45.7 | 20.9 | 43.7 | 23.7 | 49.7 | 20.7 µM | 51.1 | 51.7 | > 100 µM | 0.704 | 13.7 | – | – | – |
| O=C1/C(=C/c2ccc3c(c2)OCO3)Sc2scc(-c3ccc(O)c(O)c3)[n+]21 | – | 41.6 | – | 18.6 | – | > 35.2 | – | > 28.8 | – | > 100 | – | – | – | 24.8 µM | – | 3.71 | 37.9 | – | – |
| O=CNNC(=O)CSc1nc2ccc(I)cc2c(=O)n1Cc1ccccc1 | – | > 100 | – | > 100 | – | > 100 | – | 81.8 | – | > 100 | – | 81.4 | – | 44.4 µM | – | > 100 | > 100 | – | – |
| CC(=O)C1=C(C)N(c2ccc(C)cc2)C2(O)C=CC(=O)C3=C(O)c4ccccc4C(=O)C312 (centres undefined) | – | > 100 | – | 15.7 | – | > 100 | – | 70.2 | – | 64.4 | – | > 100 | – | 30.3 µM | – | 47.2 | 69.6 | 5.07 | – |
| COc1cccc2c1C(=O)c1c(O)c3c(c(O)c1C2=O)C[C@@](O)(C(C)=O)C[C@@H]3OC1CC(N(C)C)C(O)C(C)O1 (some centres undefined) | 0.117 µM and < 0.0167 µM | – | 0.00516 | 5.91 | – | 0.405 | – | 0.005 | 0.00108 | – | 0.0487 µM and < 0.0151 µM | – | < 0.0113 | 0.308 µM and 0.0915 µM | 0.122 | 1.34 | – | – | 0.0451 |
| COC1=CCC2=C(CCN(C(=O)C3CC3)C2Cc2ccc(OC)c(O)c2)C1 (centres undefined) | – | > 100 | – | > 100 | – | > 100 | – | > 100 | – | > 100 | – | 59.5 | – | > 100 µM | – | > 100 | > 100 | > 100 | – |
| Nc1nccc2c1ncn2C1C=C(CO)C(O)C1O (centres undefined) | 0.408 µM | 89.9 | 0.816 | > 1000 | – | – | – | – | > 1000 | > 1000 | 851 µM | > 1000 | – | 99.1 µM | 29.4 | > 1000 | > 1000 | – | 1.61 |
| O=C1CSc2sc(=S)sc2S1 | – | > 100 | – | > 100 | – | > 100 | – | – | – | > 100 | – | > 100 | – | > 100 µM | – | – | > 100 | > 100 | – |
| O=C1NC2(NC(=O)C1=O)Nc1ccccc1S2 | – | > 100 | – | > 100 | – | – | – | – | – | > 100 | – | > 100 | – | > 100 µM | – | > 100 | > 82.5 | > 100 | – |
| Cc1cc(O)c2cc3c(O)c(O)ccc3cc2c1 | – | 10.3 | – | 8.43 | – | > 87 | – | 3.21 | – | 5.63 | – | 14.1 | – | 3.22 µM | – | 33.7 | 18.1 | 3.52 | – |
| O=[P+](O)c1cccs1 | – | – | – | > 100 | – | – | – | – | – | – | – | > 100 | – | – | – | > 100 | > 100 | – | – |
| O=NN(CCCl)C(=O)Nc1ccc(Cl)c(Cl)c1 | – | > 100 | – | > 100 | – | > 100 | – | – | – | > 100 | – | > 100 | – | > 100 µM | – | – | > 100 | > 100 | – |
| CC1C(O)[C@@]2(OC[C@@]34C(=O)CC5(O)[C@H](CCC6Cc7nc8c(nc7C[C@]65C)CC5CC[C@@H]6C7=C[C@H]9O[C@@]%10(O[C@@](C)(CO)C[C@@H]%10O)C(C)[C@@]9(O)[C@]7(C)[C@@H](O)CC6[C@]5(C)C8)C3=CC[C@H]4C2C)OC1(C)C (some centres undefined) | – | 0.0015 | – | 0.061 | – | 0.625 | – | – | – | > 3.55 | – | < 0.000355 | – | 0.0141 µM | – | – | 0.101 | 0.0275 | – |
| Cc1ccc([S+](c2ccccc2)c2cc(C)ccc2C)cc1 (centres undefined) | – | 90.8 | – | – | – | – | – | – | – | – | – | – | – | – | – | – | – | > 100 | – |
| CC(=O)OCC1OC(N2C(=O)CC(N)=Nc3ccccc32)C(OC(C)=O)C(OC(C)=O)C1OC(C)=O (centres undefined) | – | > 100 | – | > 100 | – | > 100 | – | > 100 | – | – | – | 95.1 | – | > 100 µM | – | > 100 | > 100 | > 100 | – |
| CN(CCNC(=O)c1cn(C)c2c1ccc1cc(Cl)ccc12)CCNC(=O)c1cn(C)c2c1ccc1cc(Cl)ccc12 | – | – | – | 3.62 | – | – | – | 71.8 | – | 77.8 | – | – | – | 13.7 µM | – | 18.2 | > 100 | 4.85 | – |
| CCc1cccc(C(C)C)c1NC1=C([n+]2ccc(C)cc2)C(=O)c2ccccc2C1=O | – | 9.62 | – | 7.75 | – | 1.3 | – | > 34.7 | – | 8.76 | – | 4.28 | – | 28.9 µM | – | 29.1 | 12.1 | 6.91 | – |
| Oc1ccc(NCc2cc(O)ccc2O)cc1 | – | 35.7 | – | 57.6 | – | 34.2 | – | 29.2 | – | 50.4 | – | 28.8 | – | 36.3 µM | – | 30.4 | 29.5 | 34.3 | – |
| COC[C@@H]1Cc2cc(OC)c3c(c2[C@H](c2ccc(OC)c(OC)c2)[C@H]1COC)OCO3 | – | – | – | > 100 | – | – | – | – | – | – | – | > 100 | – | > 100 µM | – | > 100 | > 100 | > 100 | – |
| C[As](C)SCC(NC(=O)CCC(N)C(=O)O)C(=O)NCC(=O)O.Cl.c1ccncc1 (centres undefined) | – | 5.64 | – | – | – | 1.14 | – | 0.912 | – | 1.19 | – | 0.398 | – | 1.67 µM | – | 0.595 | 5.58 | 0.119 | – |
| O=CN(O)CC(=O)O.[Ni] | – | > 100 | – | > 100 | – | > 100 | – | > 100 | – | > 100 | – | > 100 | – | – | – | – | > 100 | > 100 | – |
| CC(C)(C)OC(=O)N1CCCC1C(=O)NCCNc1ccc(NCCNC(=O)C2CCCN2C(=O)OC(C)(C)C)c2c1C(=O)c1ccccc1C2=O (centres undefined) | – | 33.2 | – | 38.2 | – | 34.2 | – | 25.9 | – | 46.6 | – | – | – | 38.5 µM | – | 49.1 | 44.6 | 33 | – |
| Cc1ccc(NC(=O)CC(=O)n2nc(-c3ccccc3)c(N=Nc3ccccc3C(=O)O)c2-c2ccccc2)cc1 | – | > 100 | – | – | – | – | – | – | – | > 100 | – | > 100 | – | > 100 µM | – | > 100 | – | > 100 | – |
| NS(=O)(=O)c1ccc(N=Nc2ccc(O)c(O)c2)cc1 | – | 56.3 | – | 66.5 | – | > 100 | – | 38.8 | – | 40.8 | – | 34.8 | – | 34 µM | – | 93 | 72.9 | 54.9 | – |
| OCCSCc1cc(Cl)cc(Cl)c1O | – | > 100 | – | > 100 | – | > 100 | – | > 100 | – | > 100 | – | > 100 | – | – | – | > 100 | > 100 | > 100 | – |
